Experimental findings from ChEMBL document CHEMBL1155611, “Isolation and structure of the cytotoxin lyngbyabellin B and absolute configuration of lyngbyapeptin A from the marine cyanobacterium Lyngbya majuscula” (J Nat Prod, 2000) are described below.

Converted amounts (≈) assume the structure as drawn. The source made the active and inactive calls. No cut-off for these calls is given here.

One experiment concerns KB. In words: Cytotoxicity against human KB cells. Type of experiment: functional, cell-based.
The test system of the next experiment is LoVo. In words: Cytotoxicity against human LoVo cells. The class given is functional, cell-based.

Consider `CC(C)[C@@H]1NC(=O)CNC(=O)[C@@H]2CSC(=N2)[C@H](C(C)(C)O)OC(=O)C(C)(C)[C@H](CCCC(C)(Cl)Cl)OC(=O)c2csc1n2` [LYNGBYABELLIN B], for which the IC50 in the experiment on KB stood at 0.1 µg/mL (≈ 0.147 µM); with LoVo, 0.83 µg/mL (≈ 1.22 µM).
As to `CC[C@H](C)[C@@H](C(=O)N1CCC[C@H]1c1nccs1)N(C)C(=O)[C@H](CC(C)C)N(C)C(=O)[C@H](Cc1ccc(OC)cc1)N(C)C(=O)/C=C(\C)OC`, the result in the experiment with KB and in the experiment on LoVo was inactive.
